# What was measured:
# [1] = system: CMGC protein kinase family; assay: Peptide phosphorylation by several members of the CMGC kinase family (selectivity); type: biochemical; conditions: 50 μM peptide, 2 mUnits of each kinase, 30 min, Fig. 1d
# Protocol: (§1) Specific activity (pmol/min) was determined for all protein kinases by incubating known amounts of kinase (0.01-1 μg) with the generic substrate myelin basic protein (MBP, 0.3 mg/ml final) in kinase buffer (25 mM MOPS pH 7.5, 0.05 % (v/v) Brij-35, 0.25 mM EDTA, 5 % (v/v) glycerol) plus 10 mM MgCl2, and 100 μM [γ-32P] ATP (approx 0.5 × 10^6 CPM/nmol) as previously described. Peptide kinase assays were performed with 2mUnits of each kinase as above, except MBP was replaced with the peptide at the concentration given in figure legends. One unit of activity of each protein kinase was calculated as 1 nmole of phosphate transferred/min.
# (§2) Fig. 1 In vitro analysis of primary sequence determinants for p35/CDK5 and p25/CDK5. a The contribution of C-terminal Arg/Lys residues to recognition and phosphorylation by each CDK5 complex was assessed by incubating the peptides at the indicated concentrations with 2 m units of each CDK5 complex for 20 mins and measuring phosphate transferred to each peptide. b Each CDK5 complex was incubated for 20 mins with 100 μM of the indicated peptides representing the primary sequence of the 4 classes of CDK5 substrates. The phosphorylated residue is underlined. c To assess the contribution of specific residues ±2 positions from the target residue a further 4 peptides (at 100 μM) were incubated with 2mUnits of each CDK5 complex for 30 mins. The residue changed from the parent sequence (peptide 1.0) is in italics in each case. *indicates p < 0.05 compared to peptide 1.0. d The rate of phosphorylation of the indicated peptides by several members of the CMGC family of kinases was compared by incubating each peptide (at 50 μM) with 2 m units (as determined against the generic substrate MBP) of each kinase for 30 mins and phosphate transfer measured. In all figures the data is presented as the average of at least two different experiments performed in duplicate ± the SEM, and is given as total picomoles transferred during the assay (a) or pmoles transferred/min (b-d)
# CDK5 = system: CDK5; parameters: method as in PMID 19075597; conditions: application of carboplatin; cited from earlier work
# p25/CDK5 [2] = target: T1, p25/CDK5 (Homo sapiens, UniProt Q00535+Q15078); assay: Peptide kinase assay with p25/CDK5; type: biochemical; conditions: 100 μM peptide; for Rate of phosphorylation compared with related peptides, in words: 1.0 versus 1.1 and 1.2, 1.4 versus 1.3; for Phosphorylation of substrate class peptides, in words: 20 min, Fig. 1b
# T1 construct: purchased Millipore UK Ltd, Herts, UK
# T1 sequence (Q00535 whole entry): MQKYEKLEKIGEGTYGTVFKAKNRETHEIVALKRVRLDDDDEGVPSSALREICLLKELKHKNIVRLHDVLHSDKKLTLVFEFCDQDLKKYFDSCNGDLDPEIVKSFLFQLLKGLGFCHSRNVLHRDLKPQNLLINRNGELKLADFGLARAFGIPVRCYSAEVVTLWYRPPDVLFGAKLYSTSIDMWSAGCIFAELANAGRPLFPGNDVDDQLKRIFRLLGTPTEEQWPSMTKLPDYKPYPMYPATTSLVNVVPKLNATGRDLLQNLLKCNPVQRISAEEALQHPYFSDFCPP
# T1 sequence (Q15078 99-307 partner limits assumed): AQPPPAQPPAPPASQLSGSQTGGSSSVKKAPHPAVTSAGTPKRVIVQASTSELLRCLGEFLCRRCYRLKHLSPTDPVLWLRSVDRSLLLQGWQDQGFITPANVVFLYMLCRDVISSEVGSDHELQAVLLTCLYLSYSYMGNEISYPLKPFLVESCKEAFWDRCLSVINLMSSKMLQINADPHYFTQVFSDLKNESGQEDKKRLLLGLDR
# Protocol: as §1, §2
# p35/CDK5 [3] = target: T2, p35/CDK5 (Homo sapiens, UniProt Q00535+Q15078); assay: Peptide kinase assay with p35/CDK5; type: biochemical; conditions: 100 μM peptide; for Rate of phosphorylation compared with related peptides, in words: 1.0 versus 1.1 and 1.2, 1.4 versus 1.3; for Phosphorylation of substrate class peptides, in words: 20 min, Fig. 1b
# T2 construct: purchased Millipore UK Ltd, Herts, UK
# T2 sequence (Q00535 whole entry): as the sequence (Q00535 whole entry) above
# T2 sequence (Q15078 whole entry partner): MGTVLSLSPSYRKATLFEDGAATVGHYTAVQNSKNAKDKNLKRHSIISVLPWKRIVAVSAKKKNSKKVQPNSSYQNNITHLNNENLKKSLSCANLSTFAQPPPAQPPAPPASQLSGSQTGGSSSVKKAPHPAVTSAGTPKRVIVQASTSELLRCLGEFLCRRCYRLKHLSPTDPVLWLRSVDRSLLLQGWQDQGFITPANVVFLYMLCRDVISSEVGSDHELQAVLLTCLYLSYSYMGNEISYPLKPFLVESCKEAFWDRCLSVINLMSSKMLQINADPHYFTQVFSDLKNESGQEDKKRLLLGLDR
# Protocol: as §1, §2
# p25/CDK5 [4] = target: T1, p25/CDK5; assay: Phosphorylation kinetics of recombinant protein substrates by p25/Cdk5; type: biochemical; conditions: initial rate, varying substrate concentrations, Mg[γ-32P]ATP, 10 min, 30 °C, Lineweaver-Burk, ND = not determinable, not phosphorylated to a significant level; for Vmax: at least two experiments in duplicate
# Protocol: (§3) Recombinant protein substrates were incubated with 2mUnits of each CMGC kinase as for MBP above for the times and at the concentrations given in figure legends. Reactions were terminated by the addition of SDS-PAGE loading buffer and heating to 70 °C for 15 mins. Aliquots were subjected to SDS-PAGE, stained with Coomassie Brilliant Blue (CBR-250), the gels were dried and radiolabeled bands visualized by autoradiography. Quantification of nmoles of phosphate incorporated was obtained by excising the stained protein band from the gel and counting in scintillation fluid.
# p35/CDK5 [5] = target: T2, p35/CDK5; assay: Phosphorylation kinetics of recombinant protein substrates by p35/Cdk5; type: biochemical; conditions: initial rate, varying substrate concentrations, Mg[γ-32P]ATP, 10 min, 30 °C, Lineweaver-Burk, ND = not determinable, not phosphorylated to a significant level; for Vmax: at least two experiments in duplicate
# Protocol: as §3
# PICTAIRE = assay: Peptide kinase assay with […]; type: biochemical; conditions: 50 μM peptide, 2 mUnits kinase, 30 min, Fig. 1d
# Protocol: as §1
# Fig. 1 In vitro analysis of primary sequence determinants for p35/CDK5 and p25/CDK5. a The contribution of C-terminal Arg/Lys residues to recognition and phosphorylation by each CDK5 complex was assessed by incubating the peptides at the indicated concentrations with 2 m units of each CDK5 complex for 20 mins and measuring phosphate transferred to each peptide. b Each CDK5 complex was incubated for 20 mins with 100 μM of the indicated peptides representing the primary sequence of the 4 classes of CDK5 substrates. The phosphorylated residue is underlined. c To assess the contribution of specific residues ±2 positions from the target residue a further 4 peptides (at 100 μM) were incubated with 2mUnits of each CDK5 complex for 30 mins. […]
# MCF-7 = MCF-7 breast cancer cell line; cited from earlier work
# Text: (§4) Similarly, CDK5 levels decrease in gastric cancer and its nuclear accumulation suppresses gastric tumorigenesis.
# MDA-MB321 = MDA-MB321 breast cancer cell line; cited from earlier work
# Text: as §4
# p25/CDK5 [6] = target: T1, p25/CDK5; type: biochemical; conditions: inhibitor 10 μM, 30 min pre-incubation, GST-tau 0.5 μM, 2 mUnits kinase, Fig. 2b
# Protocol: as §3
# (§5) Recombinant protein substrates (0.5 μM final concentration) were incubated with 2mUnits of each CDK5 complex and MgCl2 and [γ-32P] ATP (approx 0.5x10^6 CPM/nmole) for 30 mins. Reactions were terminated by the addition of SDS-PAGE loading buffer and heating to 70 °C. […] Data is representative of at least three different experiments
# p35/CDK5 [7] = target: T2, p35/CDK5; type: biochemical; conditions: inhibitor 10 μM, 30 min pre-incubation, GST-tau 0.5 μM, 2 mUnits kinase, Fig. 2b
# Protocol: as §3, §5
# [8] = system: CDK5 substrate phosphorylation in primary cortical neurons; assay: Immunohistochemistry of CDK5 substrate phosphorylation in paraffin-embedded primary neurons; type: cell-based, rat; conditions: 10 μM inhibitor, 3 h, formaldehyde fixed, Fig. 3b
# Protocol: Sections of formalin-fixed, paraffin embedded tissue were cut at a thickness of 4 μm, collected onto Polysine-coated microscope slides (VWR International) and dried overnight at 37 °C. Sections were dewaxed in Histoclear, rinsed in alcohol and endogenous peroxidase was quenched with 0.5 % hydrogen peroxide (100 volumes) in methanol at room temperature for 35 min. After washing in water, antigen retrieval was performed by boiling sections in 10 mM citrate buffer, pH 6.0 for 15 min in a microwave. After cooling, sections were rinsed in PBS and blocked with 5 % normal serum in PBS containing 5 % (v/v) avidin (Vector Laboratories, Peterborough, UK) for 30 min at room temperature. Sections were washed in PBS and incubated with primary antibody in 5 % normal serum in PBS containing 5 % (v/v) biotin at 4 °C overnight. After washing in PBS, sections were then incubated with biotinylated secondary antibody (1:250) (Vector Laboratories) for 30 min at room temperature, followed by streptavidin complexed with biotinylated peroxidase (Vectastain ABC kit; Vector Laboratories) at room temperature for 30 min. […] Cell nuclei were counterstained with haematoxylin (Sigma), dehydrated through graded alcohols, cleared in HistoClear and mounted in DPX. Images were taken using a Spot Insight QE digital camera or slides were digitally scanned (x40) using an Aperio ScanScope XT.
# [9] = system: CDK5 substrate phosphorylation in primary cortical neurons; assay: Immunofluorescence of CDK5 substrate phosphorylation in primary cortical neurons; type: cell-based, rat; conditions: 10 μM inhibitor, 3 h, neurons 6 days in vitro, Fig. 3a
# Protocol: Embryonic primary cortical neurons were isolated from Sprague–Dawley rats at day 18 gestation. Briefly, following dissection, cortex was digested in 0.25 % trypsin in Hank’s balanced salt solution at 37 °C for 20 min. Cells were manually dissociated by trituration using a fire-polished Pasteur pipette and plated onto 0.01 % poly-l-lysine-coated coverslips at a density of 2–5 × 10^6 cells per 6 cm well, then incubated at 37 °C with 5 % CO2 in Neurobasal medium (Gibco) containing 2 % (vol/vol) B27 serum replacement (Invitrogen), penicillin (Sigma; 100 units/ml), streptomycin (Sigma; 100 μg/ml), and 1 % (vol/vol) L-glutamine (Sigma). HeLa and tumour cell lines were maintained in DMEM supplemented with 4.5 g/L glucose, 10 % (vol/vol) FCS, 1 % (vol/vol) penicillin (100 units/ml)/streptomycin (100 μg/ml) at 37 °C in 5 % CO2. […]
# Fig. 3 Imaging of CDK5 substrate phosphorylaiton in primary cells. […] Phosphospecific antibodies were detected by Cy-3 bound 2ry antibodies (red) and nuclei were counter-stained with the DNA-binding dye DAPI (blue). […]
compound,measurement,setting,value
KKASAPKSPARPRS [peptide 1.1],"Selectivity of peptide substrate among CMGC kinases, in words",[1],CDK5 is the most effective kinase
KKASAPVSPRKPRS [peptide 1.2],"Selectivity of peptide substrate among CMGC kinases, in words",[1],CDK5 is the most effective kinase
N.N.O=C([O-])C1(C(=O)[O-])CCC1.[Pt+2] [carboplatin],Effect on CDK5 activity,CDK5,induces CDK5 activation
KKASAAKSPPKPRS [peptide 1.4],"Rate of phosphorylation compared with related peptides, in words","p25/CDK5 [2]; 2 mUnits, 30 min, Fig. 1c",did not restore phosphorylation
same,"Rate of phosphorylation compared with related peptides, in words","p35/CDK5 [3]; 2 mUnits, 30 min, Fig. 1c",did not restore phosphorylation
"CRMP4: recombinant collapsin response mediator protein 4, proposed CDK5 substrate",Km,p25/CDK5 [4],0.252 µM
same,Vmax,p25/CDK5 [4],0.155 pmol/min
same,Km,p35/CDK5 [5],0.401 µM
same,Vmax,p35/CDK5 [5],0.665 pmol/min
KKPKSRRSPPSIPT [Class 3],"Phosphorylation of substrate class peptides, in words",p25/CDK5 [2],not phosphorylated
same,"Phosphorylation of substrate class peptides, in words",p35/CDK5 [3],not phosphorylated
KKASAPKSPPKPRS [peptide 1.3],"Phosphorylation by PICTAIRE compared with CDK5, in words",PICTAIRE,to a greater extent than CDK5
same,Reduction of rate of phosphorylation compared to peptide 1.0 and 1.1,"p25/CDK5 [2]; 2 mUnits, 30 min, Fig. 1c",> 90%
same,Reduction of rate of phosphorylation compared to peptide 1.0 and 1.1,"p35/CDK5 [3]; 2 mUnits, 30 min, Fig. 1c",> 90%
KKASAPKSPRKPRS [peptide 1.0],Phosphorylation by PICTAIRE relative to a matched amount of MBP kinase activity of CDK5,PICTAIRE,< 80%
same,"Rate of phosphorylation compared with related peptides, in words","p25/CDK5 [2]; 2 mUnits, 30 min, Fig. 1c",twice the rate
same,"Phosphorylation of substrate class peptides, in words",p25/CDK5 [2],much better substrates
same,"Selectivity of peptide substrate among CMGC kinases, in words",[1],highly selective for CDK5
same,"Rate of phosphorylation compared with related peptides, in words","p35/CDK5 [3]; 2 mUnits, 30 min, Fig. 1c",twice the rate
same,"Phosphorylation of substrate class peptides, in words",p35/CDK5 [3],much better substrates
"CRMP1: recombinant collapsin response mediator protein 1, proposed CDK5 substrate",Km,p25/CDK5 [4],1.46 µM
same,Vmax,p25/CDK5 [4],0.191 pmol/min
same,Km,p35/CDK5 [5],1.26 µM
same,Vmax,p35/CDK5 [5],0.735 pmol/min
CC[C@H](CO)Nc1nc(NCc2ccccc2)c2ncn(C(C)C)c2n1 [roscovitine],Effect on proliferation,MCF-7,enhances the proliferation
same,Effect on proliferation,MDA-MB321,enhances the proliferation
KKASAPVSPPRDRK [Class 2],"Phosphorylation of substrate class peptides, in words",p25/CDK5 [2],relatively poor substrate
same,"Phosphorylation of substrate class peptides, in words",p35/CDK5 [3],relatively poor substrate
CC(C)[C@H](CO)Nc1nc(Nc2cccc(Cl)c2)c2ncn(C(C)C)c2n1 [purvalanol A],Effect of CDK inhibitor on tau phosphorylation in vitro,p25/CDK5 [6],completely blocked
same,Effect of CDK inhibitor on tau phosphorylation in vitro,p35/CDK5 [7],completely blocked
same,Intensity of staining and number of cells stained for phospho-Ser522 of CRMP2 (immunohistochemistry),[8],reduced
same,Tau phosphorylation at Ser235 (immunohistochemistry),[8],not significantly affected
same,Tau phosphorylation at Thr205 (immunohistochemistry),[8],not significantly affected
same,CRMP2 phosphorylation at Ser522 (immunofluorescence),[9],reduces
same,CRMP4 phosphorylation at Ser522 (immunofluorescence),[9],does not alter
KKENNVLSPLPSQA [Class 4],"Phosphorylation of substrate class peptides, in words",p25/CDK5 [2],not phosphorylated
same,"Phosphorylation of substrate class peptides, in words",p35/CDK5 [3],not phosphorylated

# Source: article PMC4640224, “Phosphorylation of a splice variant of collapsin response mediator protein 2 in the nucleus of tumour cells links cyclin dependent kinase-5 to oncogenesis” (BMC Cancer, 2015)
